This note sets out measurements from patent US8697715B2, “Serine/threonine kinase inhibitors” (Array BioPharma Inc., priority 2012, dated 2014).

The subject of this assay is PMA-stimulated P90RSK(Ser380) phosphorylation in HepG2 cells. The assay is described as follows: Cellular P90RSK(Ser380) Phosphorylation Assay. It is filed as cell-based. To be noted: Homo sapiens, read-out: Biological Example 2 IC50 (nM), 1.5 hours compound incubation, PMA 100 ng/mL 30 minutes, normalized to GAPDH, single assay or mean of multiple assays. Here is the method:
Inhibition of PMA-stimulated P90RSK(Ser380) phosphorylation was determined by the following in vitro cellular mechanistic assay, which comprises incubating cells with a compound for 1.5 hours and quantifying fluorescent pP90RSK(Ser380) signal on fixed cells and normalizing to GAPDH signal.
HepG2 cells were obtained from ATCC and grown in DMEM supplemented with 10% fetal bovine serum. Cells were plated in 96-well plates at 35,000 cells/well and allowed to attach overnight at 37° C./5% CO2. Diluted compounds were then added at a final concentration of 0.5% DMSO. After 1.5 hours compound incubation, cells were stimulated with the addition of phorbol 12-myristate 13-acetate (“PMA”) at a final concentration of 100 ng/mL; the PMA stimulation was a 30-minute incubation at 37° C./5% CO2. After the 30-minute PMA stimulation, cells were washed with phosphate buffered saline (“PBS”) and fixed in 3.7% formaldehyde in PBS at room temperature for 15-20 minutes. This was followed by another wash in PBS and then permeabilization in 100% MeOH at room temperature for 10-15 minutes. Following the permeabilization incubation, cells were washed in PBS/0.05% Tween-20, followed by a block in Odyssey blocking buffer (LI-COR Biosciences) for at least 1 hour. […] Both secondary antibodies were used at a 1:1000 dilution. Cells were then washed and analyzed for fluorescence at both wavelengths using the Odyssey Infrared Imaging System (LI-COR Biosciences). Phosphorylated P90RSK(Ser380) signal was normalized to GAPDH signal.
Take `O=c1cc(-c2ccnc(NC3CCOCC3)n2)ccn1[C@H](CO)c1ccc(Cl)c(F)c1` [Example 1, (S)-1-(1-(4-chloro-3-fluorophenyl)-2-hydroxyethyl)-4-(2-((tetrahydro-2H-pyran-4-yl)amino)pyrimidin-4-yl)pyridin-2(1H)-one]: the IC50 was 31.9 nM.

Regarding `O=c1cc(-c2ccnc(N[C@H]3CCOC[C@H]3F)n2)ccn1[C@H](CO)c1ccc(Cl)c(F)c1` [Example 2, 1-((S)-1-(4-chloro-3-fluorophenyl)-2-hydroxyethyl)-4-(2(((3S,4S)-3-fluorotetrahydro-2H-pyran-4-yl)amino)pyrimidin-4-yl)pyridin-2(1H)-one], the IC50 was 59.1 nM.

For the compound `O=c1cc(-c2ccnc(N[C@@H]3CCOC[C@H]3F)n2)ccn1[C@H](CO)c1ccc(Cl)c(F)c1` [Example 3, 1-((S)-1-(4-chloro-3-fluorophenyl)-2-hydroxyethyl)-4-(2-(((3S,4R)-3-fluorotetrahydro-2H-pyran-4-yl)amino)pyrimidin-4-yl)pyridin-2(1H)-one], the IC50 was 40.3 nM.

`O=c1cc(-c2ccnc(N[C@H]3CCOC[C@H]3F)n2)ccn1[C@H](CO)c1ccc(Cl)c(Cl)c1` [Example 4, 1-((S)-1-(3,4-dichlorophenyl)-2-hydroxyethyl)-4-(2-(((3S,4S)-3-fluorotetrahydro-2H-pyran-4-yl)amino)pyrimidin-4-yl)pyridin-2(1H)-one]: the IC50 was 8.5 nM.

As to `Cn1nccc1Nc1nccc(-c2ccn([C@H](CO)c3ccc(Cl)c(F)c3)c(=O)c2)n1` [Example 39, (S)-1-(1-(4-chloro-3-fluorophenyl)-2-hydroxyethyl)-4-(2-((1-methyl-1H-pyrazol-5-yl)amino)pyrimidin-4-yl)pyridin-2(1H)-one], the IC50 was found to be 15.5 nM.

Consider `O=c1cc(-c2ccnc(N[C@@H]3C[C@@H]4C[C@H]3CO4)n2)ccn1[C@H](CO)c1ccc(Cl)c(F)c1` [Example 42, 4-(2-((1S,4R,5R)-2-oxabicyclo[2.2.1]heptan-5-ylamino)pyrimidin-4-yl)-1-((S)-1-(4-chloro-3-fluorophenyl)-2-hydroxyethyl)pyridin-2(1H)-one], for which the IC50 came out at 74 nM.

For `COc1ccc([C@@H]([C@H]2CCCN2)n2ccc(-c3ccnc(NC4CCOCC4)n3)cc2=O)cc1F` [Example 50, 1-((S)-(3-fluoro-4-methoxyphenyl)((R)-pyrrolidin-2-yl)methyl)-4-(2-((tetrahydro-2H-pyran-4-yl)amino)pyrimidin-4-yl)pyridin-2(1H)-one], the IC50 was 292 nM.

Turning to `O=c1cc(-c2ccnc(NC3CCOCC3)n2)ccn1[C@H](CO)c1cccc(Cl)c1` [Example 57, (S)-1-(1-(3-chlorophenyl)-2-hydroxyethyl)-4-(2-((tetrahydro-2H-pyran-4-yl)amino)pyrimidin-4-yl)pyridin-2(1H)-one], the IC50 was 1770 nM.

As for `C[C@@H](CO)Nc1nccc(-c2ccn(C(CO)c3cccc(Cl)c3)c(=O)c2)n1` (stereo partly drawn) [Example 58, 1-(1-(3-chlorophenyl)-2-hydroxyethyl)-4-(2-(((S)-1-hydroxypropan-2-yl)amino)pyrimidin-4-yl)pyridin-2(1H)-one], the IC50 was 708 nM.

Consider `C[C@@H](CO)Nc1nccc(-c2ccn(C(CO)c3ccc(F)c(Cl)c3)c(=O)c2)n1` (stereo partly drawn) [Example 60, 1-(1-(3-chloro-4-fluorophenyl)-2-hydroxyethyl)-4-(2-(((S)-1-hydroxypropan-2-yl)amino)pyrimidin-4-yl)pyridin-2(1H)-one], for which the IC50 is 1610 nM.

In the case of `O=c1cc(-c2ccnc(NC3CCOCC3)n2)ccn1C(c1ccc(Cl)c(F)c1)[C@@H]1CCCN1` (stereo partly drawn) [Example 102, 1-((4-chloro-3-fluorophenyl)((S)-pyrrolidin-2-yl)methyl)-4-(2-((tetrahydro-2H-pyran-4-yl)amino)pyrimidin-4-yl)pyridin-2(1H)-one], the IC50 is more than 5000 nM.

On to `CC[C@@H](CO)Nc1nccc(-c2ccn(C(C)c3ccc(Cl)c(F)c3)c(=O)c2)n1` (stereo partly drawn) [Example 134, 1-(1-(4-chloro-3-fluorophenyl)ethyl)-4-(2-(((S)-1-hydroxybutan-2-yl)amino)pyrimidin-4-yl)pyridin-2(1H)-one], for which the IC50 is 544 nM.

As to `CCc1nccc(Nc2nccc(-c3ccn(C(CO)c4ccc(Cl)c(F)c4)c(=O)c3)n2)n1` (stereo not drawn) [Example 139, 1-(1-(4-chloro-3-fluorophenyl)-2-hydroxyethyl)-4-(2-((2-ethylpyrimidin-4-yl)amino)pyrimidin-4-yl)pyridin-2(1H)-one], the IC50 came to 372 nM.

On to `O=c1cc(-c2ccnc(NC3CCOCC3)n2)ccn1CCc1ccc(OC(F)(F)F)cc1` [Example 157, 4-(2-((tetrahydro-2H-pyran-4-yl)amino)pyrimidin-4-yl)-1-(4-(trifluoromethoxy)phenethyl)pyridin-2(1H)-one], for which the IC50 was 46.3 nM.

On to `Cc1nn(C)cc1Nc1nccc(-c2ccn(C(CO)c3ccc(Cl)c(F)c3)c(=O)c2)n1` (stereo not drawn) [Example 166, 1-(1-(4-chloro-3-fluorophenyl)-2-hydroxyethyl)-4-(2-((1,3-dimethyl-1H-pyrazol-4-yl)amino)pyrimidin-4-yl)pyridin-2(1H)-one], for which the IC50 amounted to 12.9 nM.

In the case of `Cc1cc(Nc2nccc(-c3ccn([C@H](CO)c4ccc(Cl)c(F)c4)c(=O)c3)n2)n(C)n1` [Example 167, (S)-1-(1-(4-chloro-3-fluorophenyl)-2-hydroxyethyl)-4-(2-((1,3-dimethyl-1H-pyrazol-5-yl)amino)pyrimidin-4-yl)pyridin-2(1H)-one], the IC50 stood at 100 nM.

Turning to `C=C(c1ccc(Cl)c(F)c1)n1ccc(-c2ccnc(Nc3ccnc(C)c3)n2)cc1=O` [Example 172, 1-(1-(4-chloro-3-fluorophenyl)vinyl)-4-(2-((2-methylpyridin-4-yl)amino)pyrimidin-4-yl)pyridin-2(1H)-one], the IC50 was 12.9 nM.

Turning to `CCn1cc(Nc2nccc(-c3ccn([C@H](CO)c4ccc(Cl)c(F)c4)c(=O)c3)n2)c(C)n1` [Example 173, (S)-1-(1-(4-chloro-3-fluorophenyl)-2-hydroxyethyl)-4-(2-((1-ethyl-3-methyl-1H-pyrazol-4-yl)amino)pyrimidin-4-yl)pyridin-2(1H)-one], the IC50 was 110 nM.

As to `Cc1nc[nH]c1Nc1nccc(-c2ccn([C@H](CO)c3ccc(Cl)c(F)c3)c(=O)c2)n1` [Example 185, (S)-1-(1-(4-chloro-3-fluorophenyl)-2-hydroxyethyl)-4-(2-((4-methyl-1H-imidazol-5-yl)amino)pyrimidin-4-yl)pyridin-2(1H)-one], the IC50 came to 19.6 nM.

Consider `Cn1cc(C(c2ccc(Cl)c(Cl)c2)n2ccc(-c3nc(NC4CCOCC4)ncc3F)cc2=O)cn1` (stereo not drawn) [Example 209, 1-((3,4-dichlorophenyl)(1-methyl-1H-pyrazol-4-yl)methyl)-4-(5-fluoro-2-((tetrahydro-2H-pyran-4-yl)amino)pyrimidin-4-yl)pyridin-2(1H)-one], for which the IC50 was found to be 6.7 nM.

With `O=c1cc(-c2ccnc(NC3CCOCC3)n2)ccn1Cc1cc2ccc(Cl)cc2[nH]1` [Example 250, 1-((6-chloro-1H-indol-2-yl)methyl)-4-(2-((tetrahydro-2H-pyran-4-yl)amino)pyrimidin-4-yl)pyridin-2(1H)-one], the IC50 is 15.2 nM.

Regarding `O=c1cc(-c2ccnc(NC3CCOCC3)n2)ccn1Cc1cc2c(F)cccc2[nH]1` [Example 266, 1-((4-fluoro-1H-indol-2-yl)methyl)-4-(2-((tetrahydro-2H-pyran-4-yl)amino)pyrimidin-4-yl)pyridin-2(1H)-one], the IC50 came to 8.6 nM.

Consider `O=c1cc(-c2ccnc(NC3CCOCC3)n2)ccn1Cc1cc(F)c2cc[nH]c2c1` [Example 289, 1-((4-fluoro-1H-indol-6-yl)methyl)-4-(2-((tetrahydro-2H-pyran-4-yl)amino)pyrimidin-4-yl)pyridin-2(1H)-one], for which the IC50 worked out at 20.4 nM.

With `CC(C)(N)C(=O)OC[C@H](c1ccc(Cl)c(F)c1)n1ccc(-c2ccnc(NC3CCOCC3)n2)cc1=O` [Example 290, (S)-2-(4-chloro-3-fluorophenyl)-2-(2-oxo-4-(2-((tetrahydro-2H-pyran-4-yl)amino)pyrimidin-4-yl)pyridin-1(2H)-yl)ethyl 2-amino-2-methylpropanoate], the IC50 amounted to 26.5 nM.

As for `O=c1cc(-c2ccnc(NC3CCOCC3)n2)ccn1[C@H](CO)c1cc2cc(F)ccc2[nH]1` [Example 291, (S)-1-(1-(5-fluoro-1H-indol-2-yl)-2-hydroxyethyl)-4-(2-((tetrahydro-2H-pyran-4-yl)amino)pyrimidin-4-yl)pyridin-2(1H)-one], the IC50 was 55.9 nM.

`CC(=O)OC[C@H](c1ccc(Cl)c(F)c1)n1ccc(-c2ccnc(Nc3ccnn3C)n2)cc1=O` [Example 293, (S)-2-(4-chloro-3-fluorophenyl)-2-(4-(2-((1-methyl-1H-pyrazol-5-yl)amino)pyrimidin-4-yl)-2-oxopyridin-1(2H)-yl)ethyl acetate]: the IC50 is 16.8 nM.

Consider `C=C(c1ccc(Cl)c(F)c1)n1ccc(-c2ccnc(Nc3ccnn3CC)n2)cc1=O` [Example 295, 1-(1-(4-chloro-3-fluorophenyl)vinyl)-4-(2-((1-ethyl-1H-pyrazol-5-yl)amino)pyrimidin-4-yl)pyridin-2(1H)-one], for which the IC50 stood at 204 nM.
